Tests used:
PI3Kalpha = PI3Kalpha (Homo sapiens (Human), UniProt P42336); test: HTRF PI3K biochemical assay, alpha isoform (selectivity versus PI3Kalpha); conditions: relative ratio (PI3K-alpha IC50 value/PI3K-delta IC50 value); form screened: Neutral
Outline: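 Uses recombinant PI3Kalpha at 0.5 nM with 100 uM ATP and 5 uM PIP2, after a 15 min RT compound pre-incubation and a 1 h RT reaction. PIP3 product displaces biotin-PIP3 from GST-GRP1 PH domain, read as HTRF 665/620 ratio. IC50 from a 10-point dose response, corrected via a PIP3 standard curve.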

PI3Kdelta = PI3Kdelta (Homo sapiens (Human), UniProt O00329); test: HTRF PI3K biochemical assay, delta isoform; conditions: 0.3 nM enzyme, 100 uM ATP, 5 uM PIP2, form screened: Neutral
PI3Kdelta, sequence (O00329 whole entry, canonical isoform): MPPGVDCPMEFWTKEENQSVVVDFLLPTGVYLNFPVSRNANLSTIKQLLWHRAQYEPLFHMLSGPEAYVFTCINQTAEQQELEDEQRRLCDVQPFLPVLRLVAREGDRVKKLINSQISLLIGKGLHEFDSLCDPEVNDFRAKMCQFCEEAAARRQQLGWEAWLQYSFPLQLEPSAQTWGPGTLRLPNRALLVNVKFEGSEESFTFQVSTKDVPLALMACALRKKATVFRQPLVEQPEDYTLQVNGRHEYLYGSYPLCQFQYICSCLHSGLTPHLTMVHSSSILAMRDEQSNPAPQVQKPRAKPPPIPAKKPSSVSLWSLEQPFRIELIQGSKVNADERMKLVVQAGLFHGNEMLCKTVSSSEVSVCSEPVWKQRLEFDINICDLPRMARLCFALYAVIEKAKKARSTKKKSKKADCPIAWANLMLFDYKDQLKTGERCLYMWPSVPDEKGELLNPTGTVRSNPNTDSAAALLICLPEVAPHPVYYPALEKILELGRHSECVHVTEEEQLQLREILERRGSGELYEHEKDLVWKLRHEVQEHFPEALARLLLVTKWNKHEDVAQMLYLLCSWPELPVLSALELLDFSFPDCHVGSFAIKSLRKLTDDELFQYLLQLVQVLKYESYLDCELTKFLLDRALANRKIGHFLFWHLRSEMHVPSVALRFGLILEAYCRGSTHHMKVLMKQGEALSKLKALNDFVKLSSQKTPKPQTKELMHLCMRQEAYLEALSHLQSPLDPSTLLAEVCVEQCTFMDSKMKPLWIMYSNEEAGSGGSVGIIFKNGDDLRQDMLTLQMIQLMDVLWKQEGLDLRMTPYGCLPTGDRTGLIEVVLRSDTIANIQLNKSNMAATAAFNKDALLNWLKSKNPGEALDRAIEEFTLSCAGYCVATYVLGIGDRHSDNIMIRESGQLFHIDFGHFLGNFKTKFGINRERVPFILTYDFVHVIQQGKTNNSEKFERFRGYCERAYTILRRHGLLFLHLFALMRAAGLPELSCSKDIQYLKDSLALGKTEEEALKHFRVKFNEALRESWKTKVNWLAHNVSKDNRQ
PI3Kdelta, sequence (P27986 whole entry partner, canonical isoform): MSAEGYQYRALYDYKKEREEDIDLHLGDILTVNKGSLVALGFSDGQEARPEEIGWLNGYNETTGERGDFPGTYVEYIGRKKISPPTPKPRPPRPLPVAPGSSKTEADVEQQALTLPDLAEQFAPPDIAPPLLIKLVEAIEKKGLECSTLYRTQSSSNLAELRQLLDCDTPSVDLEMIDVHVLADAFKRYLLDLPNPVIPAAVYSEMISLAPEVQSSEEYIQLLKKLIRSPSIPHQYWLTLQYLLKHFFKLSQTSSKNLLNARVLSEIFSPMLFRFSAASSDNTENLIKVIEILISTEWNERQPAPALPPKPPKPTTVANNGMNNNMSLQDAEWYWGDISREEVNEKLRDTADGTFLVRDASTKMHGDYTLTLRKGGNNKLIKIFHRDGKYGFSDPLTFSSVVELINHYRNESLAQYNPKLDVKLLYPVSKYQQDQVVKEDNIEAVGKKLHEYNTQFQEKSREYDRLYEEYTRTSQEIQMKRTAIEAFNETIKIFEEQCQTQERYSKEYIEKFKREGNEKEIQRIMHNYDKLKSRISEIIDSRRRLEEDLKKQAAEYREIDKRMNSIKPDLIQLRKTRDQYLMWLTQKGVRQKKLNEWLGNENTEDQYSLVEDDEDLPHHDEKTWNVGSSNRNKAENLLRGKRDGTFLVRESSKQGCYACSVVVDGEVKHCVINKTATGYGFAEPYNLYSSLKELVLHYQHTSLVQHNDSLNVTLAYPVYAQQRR
Outline: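 0.3 nM PI3Kδ, pre-incubated 15 min at RT with compound (10-point 3-fold series), then reacted 1 h at RT with 100 uM ATP and 5 uM PIP2. After EDTA stop, PIP3 product detected by HTRF competition (GST-GRP1-PH, biotin-PIP3, Eu anti-GST, SA-APC), read 665/620 nm after 1 h.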

PI3Kalpha, sequence (P42336 whole entry, the tested form may be a part, canonical isoform): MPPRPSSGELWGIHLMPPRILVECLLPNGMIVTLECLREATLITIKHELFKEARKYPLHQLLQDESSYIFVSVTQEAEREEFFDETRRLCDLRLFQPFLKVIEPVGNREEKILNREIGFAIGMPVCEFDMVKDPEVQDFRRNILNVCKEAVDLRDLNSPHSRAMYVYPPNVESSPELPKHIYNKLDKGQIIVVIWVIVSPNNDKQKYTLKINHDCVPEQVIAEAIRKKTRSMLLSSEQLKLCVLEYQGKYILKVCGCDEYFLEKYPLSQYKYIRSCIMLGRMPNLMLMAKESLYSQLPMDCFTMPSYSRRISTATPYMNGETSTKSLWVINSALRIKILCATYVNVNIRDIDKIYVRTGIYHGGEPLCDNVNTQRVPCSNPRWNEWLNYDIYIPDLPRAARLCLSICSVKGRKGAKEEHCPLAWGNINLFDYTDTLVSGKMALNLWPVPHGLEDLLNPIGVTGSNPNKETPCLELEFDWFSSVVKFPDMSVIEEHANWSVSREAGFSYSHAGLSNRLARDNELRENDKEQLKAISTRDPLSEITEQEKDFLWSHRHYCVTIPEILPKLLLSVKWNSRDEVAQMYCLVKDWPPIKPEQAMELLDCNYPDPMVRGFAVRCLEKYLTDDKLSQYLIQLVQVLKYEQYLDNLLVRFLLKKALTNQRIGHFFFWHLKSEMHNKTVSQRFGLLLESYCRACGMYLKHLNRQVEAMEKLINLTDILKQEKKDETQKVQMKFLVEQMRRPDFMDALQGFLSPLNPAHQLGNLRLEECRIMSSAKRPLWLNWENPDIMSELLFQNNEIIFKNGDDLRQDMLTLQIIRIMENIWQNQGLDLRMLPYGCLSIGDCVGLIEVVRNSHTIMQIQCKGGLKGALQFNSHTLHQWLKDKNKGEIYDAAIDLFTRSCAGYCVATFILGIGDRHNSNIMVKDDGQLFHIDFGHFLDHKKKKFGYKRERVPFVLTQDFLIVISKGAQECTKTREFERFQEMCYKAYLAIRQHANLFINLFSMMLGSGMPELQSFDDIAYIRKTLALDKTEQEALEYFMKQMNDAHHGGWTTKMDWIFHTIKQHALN
PI3Kalpha, sequence (P27986 whole entry partner, the tested form may be a part, canonical isoform): as the sequence (P27986 whole entry partner, canonical isoform) above

Selectivity versus PI3Kalpha (PI3Kalpha)	IC50 (PI3Kdelta)	Structure (SMILES)
>10	5.5 nM	CC[C@H](Nc1ncnc2c1nc(-c1cnc(C)nc1)n2CC)C(=O)N1C[C@@H](C)N(C)[C@@H](C)C1 [Compound 4-3, 9-ethyl-8-(2-methylpyrimidin-5-yl)-N-[(1S)-1-{[cis-3,4,5-trimethylpiperazin-1-yl]carbonyl}propyl]-9H-purin-6-amine]
>10	4.8 nM	CC[C@H](Nc1ncnc2c1nc(-c1cnc(C)nc1)n2CC)C(=O)N1C[C@@H](C)C(F)(F)[C@@H](C)C1 [Compound 4-4, N-[(1S)-1-{[cis-4,4-difluoro-3,5-dimethylpiperidin-1-yl]carbonyl}propyl]-9-ethyl-8-(2-methylpyrimidin-5-yl)-9H-purin-6-amine]
>10	19 nM	CC[C@H](Nc1ncnc2c1nc(-c1cnc(C)nc1)n2CC)C(=O)N1CC(=O)NC(C)(C)C1 [Compound 4-7, 4-[(2S)-2-{[9-ethyl-8-(2-methylpyrimidin-5-yl)-9H-purin-6-yl]amino}butanoyl]-6,6-dimethylpiperazin-2-one]
